# Results as given in patent US5587479A, “Basic derivatives of glutamic acid and aspartic acid as gastrin or cholecystokinin antagonists” (priority 1992, dated 1996).
# Like-named read-outs stand apart in the source and are kept apart here.
# How the values were obtained:
# [1] = biological target: T1, central CCK-B receptors (guinea pig cortical membrane) (Cavia porcellus, UniProt H0VZC5); test: Inhibition of binding of (3-H)[N-methyl-N-leucine]CCK-8 to guinea pig cortical membranes (anti-CCK-B)
# T1 construct: Cerebral cortices of white male guinea pigs were therefore used; from tissue; host or cells: guinea pig cerebral cortex membranes
# T1 sequence (H0VZC5 1-426): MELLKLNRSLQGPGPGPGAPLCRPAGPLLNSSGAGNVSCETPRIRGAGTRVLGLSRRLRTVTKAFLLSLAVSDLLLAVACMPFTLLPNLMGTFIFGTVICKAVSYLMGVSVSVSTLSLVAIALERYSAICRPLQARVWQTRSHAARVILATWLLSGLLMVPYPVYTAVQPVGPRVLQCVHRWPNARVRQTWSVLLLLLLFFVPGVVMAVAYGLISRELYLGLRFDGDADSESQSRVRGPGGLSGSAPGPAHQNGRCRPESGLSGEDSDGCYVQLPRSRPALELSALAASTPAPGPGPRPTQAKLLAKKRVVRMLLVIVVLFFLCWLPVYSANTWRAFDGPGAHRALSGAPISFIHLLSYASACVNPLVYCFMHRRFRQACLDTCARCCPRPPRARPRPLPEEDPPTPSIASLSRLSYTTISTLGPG
# Method: Cerebral cortices of white male guinea pigs were therefore used, according to the method mentioned above, so as to obtain a membrane content/ml corresponding to about 300 mcg of proteins/mi. The membranes were incubated together with the radioactive tracer and the compounds under test for 150 minutes at 25° C. After the supernatant liquid had been discarded, the radioactivity associated with the pellet was determined with a liquid scintillator.
# [2] = tested on: acid secretion induced by pentagastrin; test: Activity against gastric secretion stimulated with pentagastrin in the anaesthetized rat; format: in vivo; conditions: for ED50: iv, anaesthetized rat, pentagastrin 30 mcg/kg/h, I.V. bolus, read-out: Antagonistic activity (ID50) towards acid secretion induced by pentagastrin
# Method: The investigation of the activity against gastric secretion performed by the compounds of the invention by means of an antigastrin mechanism was carried out in vivo in anaesthetized rats with the use of male animals weighing about 200 g. Gastric secretion was stimulated with pentagastrin and the method of K. S. Lai [Gut 5, (1964), 327-341] was used, slightly modified.
# After tracheotomy, the oesophagus and duodenum were cannulated. Perfusion was carried out with a tepid solution (37° C.) of 0.25 mM NaOH which was passed through the stomach by means of a peristaltic pump at a constant flow rate of 1 ml/minute. After stabilization for 20 minutes, the stimulant, dissolved in a physiological solution, was perfused for 120 minutes at a dose of 30 mcg/kg/h in a volume of 0.95 ml/hour. After perfusion for 60 minutes (the basal simulation), the product under test was administered intravenously (I.V.) as a bolus and the perfusion of the stimulant was continued for a further 60 minutes. The acid secretion was recorded continuously as a function of time.
# The activity of the product was evaluated as the percentage reduction in the secreted acidity after the administration of the product compared with the basal acidity measured during the first 60 minutes of collection in the presence of pentagastrin alone.
# guinea-pig ureters = test: Antispastic activity in vitro: spontaneous motility of guinea-pig ureters; conditions: for IC50: Cavia porcellus, five minutes contact, 37° C.
# Excerpt: The isotonic contractions were detected by means of a force transducer and recorded. […] A given concentration of the product under test was then introduced into the bath and left in contact with the prepared specimen for five minutes, after which the ureter was washed until its own spontaneous activity was re-established.
# mouse = test: Anxiolytic activity in the mouse, Black and White Box test; format: in vivo; conditions: for TOTAL MOV.: five minutes
# Method: In order to confirm the hypothesis that the potent activity of some of the compounds of the invention against central CCK-B may be correlated with a possible anxiolytic activity, this potential activity was evaluated in the mouse with the use of the "Black and White Box test". This experimental model, which was carried out according to Costall et al. [Pharm. Biochem. Behav. 32 (1989), 777-785] used a box with dimensions of 45×21×21 (h) cm. divided into two compartments which communicated with each other by means of a 13×5 cm hole. The smaller compartment (1/3 of the total area) had black walls, whereas the larger had transparent walls and was illuminated by a lamp which was placed 20 cm above the box and supplied light at 20 W. Under the floor was an activity meter which registered the movements performed by the animal in the individual compartments. The experiment was started by placing the animal in the centre of the illuminated box; as well at its movements, the time which the animal spent in the dark and in the light and the number of times it moved between the 2 compartments were recorded for five minutes. In general, a control animal tended preferably to stay in the dark compartment where it felt better protected from an unusual enviromental situation which put it in a state of anxiety. In this experimental model ( see the reference cited above), a compound having anxiolytic activity decreased the % of movements into the dark in comparison with the total movements, increased the movements between the two light-dark compartments, and increased the % of the total time time spent in the light. The results obtained are given in Table 5 below in which the activities obtained with the compound 1 (the rectus series ) and its enantiomer 2 (sinister) tested in comparison with diazepam and the CCK-B antagonist L365-260.
# [3] = biological target: T2, cholecystokinin receptors of the pancreatic cells of the rat (CCK-A) (Rattus norvegicus, UniProt P30551); test: Inhibition of the binding of [125-I]-[Bolton-Hunter]-CCK-8 to rat pancreatic cells (anti-CCK-A)
# T2 construct: The pancreatic cells of the rat were prepared as described by Makovec et al; from tissue; host or cells: rat pancreatic cells
# T2 sequence (P30551 1-444): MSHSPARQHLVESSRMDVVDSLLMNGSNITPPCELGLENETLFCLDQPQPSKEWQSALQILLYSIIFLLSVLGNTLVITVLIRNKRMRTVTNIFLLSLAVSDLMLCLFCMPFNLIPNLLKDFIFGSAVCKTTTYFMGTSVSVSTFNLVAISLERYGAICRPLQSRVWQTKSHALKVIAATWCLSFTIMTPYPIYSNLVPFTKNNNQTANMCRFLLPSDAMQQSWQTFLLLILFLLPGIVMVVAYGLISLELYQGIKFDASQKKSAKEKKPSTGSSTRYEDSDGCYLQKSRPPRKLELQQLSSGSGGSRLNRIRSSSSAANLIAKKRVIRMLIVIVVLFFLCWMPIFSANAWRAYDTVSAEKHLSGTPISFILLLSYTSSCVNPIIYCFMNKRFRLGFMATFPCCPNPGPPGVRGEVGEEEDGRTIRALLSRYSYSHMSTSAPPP
# Method: The pancreatic cells of the rat were prepared as described by Makovec et al. (reference cited) so as to produce about 5×10^6 cells/mi. The cells were then incubated together with the radioactive tracer and the compounds under test for 30 minutes at 37° C.
# After the supernatant liquid had been discarded, the radioactivity associated with the pellet was determined with a gamma counter (80% efficiency).
# [4] = IC50, inhibition of binding of (3-H)[N-methyl-N-leucine]CCK-8 to the guinea pig cortical membrane, 150 minutes at 25° C.
# [5] = force of the contractions, read-out: IC50 (force), inhibition of the spontaneous motility of guinea-pig ureters in vitro
# [6] = frequency of the contractions, read-out: IC50 (frequency), inhibition of the spontaneous motility of guinea-pig ureters in vitro
smiles,measurement,setting,value
"CSCC[C@H](NC(=O)[C@H](Cc1c[nH]c2ccccc12)NC(=O)CCNC(=O)OC(C)(C)C)C(=O)N[C@@H](CC(=O)O)C(=O)N[C@@H](Cc1ccccc1)C(N)=O [pentagastrin, reference compound]",IC50,[1],0.003 µM
O=C(CC[C@@H](NC(=O)c1cc(Cl)cc(Cl)c1)C(=O)N1CCC2(CCCC2)CC1)NCCN1CCOCC1 [Compound 3],ED50,[2],12.8 mg/kg
same,IC50,[1]; [4],2.8 µM
same,activity on guinea-pig ureters (in words),guinea-pig ureters,extremely active
same,IC50,guinea-pig ureters; [5],4.5 µg/mL
same,IC50,guinea-pig ureters; [6],4.3 µg/mL
CN1CCN(C(=O)CC[C@@H](NC(=O)c2cccc(Cl)c2)C(=O)N2CCC3(CCCC3)CC2)CC1 [Compound 7],IC50,[1]; [4],6.5 µM
CCCCCN(CCCCC)C(=O)C(CCC(=O)NCCN1CCOCC1)NC(=O)c1ccc(C(C)C)cc1 (centres unmarked) [Compound 36],IC50,[1]; [4],81.3 µM
same,activity on guinea-pig ureters (in words),guinea-pig ureters,extremely active
same,IC50,guinea-pig ureters; [5],2 µg/mL
same,IC50,guinea-pig ureters; [6],1.5 µg/mL
CN1CCN(C(=O)CC[C@@H](NC(=O)c2cccc(Cl)c2)C(=O)NCCC(C)(C)C)CC1 [Compound 23],ED50,[2],25 mg/kg
same,IC50,[1]; [4],> 100 µM
CN1CCN(C(=O)CC[C@H](NC(=O)c2cc(Cl)cc(Cl)c2)C(=O)N2CCC3(CCCC3)CC2)CC1 [Compound 2],ED50,[2],24.8 mg/kg
same,LIGHT TIME (%) TOTAL TIME,mouse; 0.1 mg/kg IP,28.3%
same,LIGHT TIME (%) TOTAL TIME: % EFF.VS CONTROL,mouse; 0.1 mg/kg IP,0%
same,LIGHT-DARK MOVEMENTS,mouse; 0.1 mg/kg IP,13.2
same,LIGHT-DARK MOVEMENTS: % EFF. VS CONTROL,mouse; 0.1 mg/kg IP,0%
same,MOV. DARK (%) TOTAL MOV.,mouse; 0.1 mg/kg IP,50%
same,MOV. DARK (%) TOTAL MOV.: % EFF. VS CONTROL,mouse; 0.1 mg/kg IP,-4%
same,TOTAL MOV.,mouse; 0.1 mg/kg IP,477
same,LIGHT TIME (%) TOTAL TIME,mouse; 1 mg/kg IP,27.5%
same,LIGHT TIME (%) TOTAL TIME: % EFF.VS CONTROL,mouse; 1 mg/kg IP,0%
same,LIGHT-DARK MOVEMENTS,mouse; 1 mg/kg IP,12.8
same,LIGHT-DARK MOVEMENTS: % EFF. VS CONTROL,mouse; 1 mg/kg IP,0%
same,MOV. DARK (%) TOTAL MOV.,mouse; 1 mg/kg IP,50%
same,MOV. DARK (%) TOTAL MOV.: % EFF. VS CONTROL,mouse; 1 mg/kg IP,-4%
same,TOTAL MOV.,mouse; 1 mg/kg IP,462
same,anxiolytic activity in the Black and White Box test (in words),mouse; IP,completely inactive
same,IC50,[1]; [4],> 100 µM
same,IC50,"[1]; read-out: IC50, binding to guinea-pig cortical membranes",> 1 µM
same,IC50,guinea-pig ureters; [5],25 µg/mL
same,IC50,guinea-pig ureters; [6],20 µg/mL
"CCCCCN(CCCCC)C(=O)C(CCC(=O)NCCN1CCOCC1)NC(=O)c1ccc(C)c(C)c1 (racemic) [Compound 44, (RS) 1-[4'-(ethylenamino)morpholinyl]-1-oxo-4-[(3,4-dimethylbenzoyl)-amino]-5-(dipentylamino) -5-oxopentane]",IC50,[1]; [4],65.4 µM
same,activity on guinea-pig ureters (in words),guinea-pig ureters,extremely active
same,IC50,guinea-pig ureters; [5],5 µg/mL
same,IC50,guinea-pig ureters; [6],4 µg/mL
CN1CCN(CCNC(=O)CC[C@@H](NC(=O)c2cc(Cl)cc(Cl)c2)C(=O)N2CCC3(CCCC3)CC2)CC1 [Compound 6],IC50,[1]; [4],3.3 µM
"CCCCCN(CCCCC)C(=O)[C@@H](CCC(=O)O)NC(=O)c1ccc(Cl)c(Cl)c1 [R-lorglumide, reference compound]",times more active than the compound 59 (CCK-A binding),[3]; rat pancreatic cells,about 25 times
same,IC50,[1]; [4],9.2 µM
CCCCN(CCCC)C(=O)C(CCC(=O)NCCCN1CCOCC1)NC(=O)c1ccc(C)c(C)c1 (centres unmarked) [Compound 29],IC50,guinea-pig ureters; [5],18 µg/mL
same,IC50,guinea-pig ureters; [6],17 µg/mL
CCCCCN(CCCCC)C(=O)[C@@H](CCC(=O)NCCN1CCOCC1)NC(=O)c1cnc2ccccc2c1 [Compound 59],IC50,"[3]; 30 minutes at 37° C., read-out: IC50, inhibition of the binding of (125-I)(B-H)-CCK-8 to the pancreatic cells of the rat",1.2 µM
"CCCCCN(CCCCC)C(=O)C(CCC(=O)O)NC(=O)c1ccc(Cl)c(Cl)c1 (centres unmarked) [lorglumide, reference compound]",antigastrin activity (in words),"[2]; rat, up to a dose of 100 mg/kg",completely inactive
